In patent US20240350456A1, “COMPOSITIONS AND METHODS FOR DIAGNOSING AND TREATING INFLAMMATORY CONDITIONS” (RUTGERS, THE STATE UNIVERSITY OF NEW JERSEY, priority 2023, published 2024):
Entries after “also recorded” stand apart in the source; their conditions may differ.

What was measured:
[1] = tested on: polarized human Caco-2-BBE cells; experiment: Nitric oxide production in polarized Caco-2-BBE cells; assay type: cell-based; conditions: 24 h exposure, 5% LGG supernatant or single metabolites
Protocol: Lastly, NOS2 activity was analyzed in cells treated with an LGG supernatant (orange bar, FIG. 15).

[2] = tested on: mouse intestinal organoids; experiment: Organoid permeability assay with 4 kDa FITC-dextran, LPS with or without metabolites; assay type: cell-based; conditions: ex vivo organoids
Protocol: (§1) Intestinal organoids were isolated as previously described (Das et al., 2015; Pearce et al., 2018). Briefly, crypts were isolated from small intestine of conventional house C57BL/6 male mice (Taconic Laboratories, Hudson, NY) by shaking in isolation buffer (2 mM EDTA in PBS), then, crypts were harvested, processed, and suspended in crypt culture medium (CCM), which consisted of advanced DMEM/F12 (Life Technologies, Carlsbad, CA) supplemented with serum-free B27 (1:50; Life Technologies), N2 (1:100; Life Technologies), N-acetylcysteine (1 mM; Sigma-Aldrich, St. Louis, MO), recombinant murine epithelial growth factor (EGF, 50 ng/ml; Peprotech, Rocky Hill, NJ), Noggin (100 ng/ml; Peprotech), R-Spondin (500 ng/ml; Peprotech), Glutamax-I supplement (1:100; Life Technologies), penicillin/streptomycin (500 μg/ml; Life Technologies), and HEPES ([…]; Life Technologies). Crypts were resuspended in 70% Matrigel (density ˜450 crypts per dome, 2 domes per well in 24-well plate) and allowed to solidify at 37° C. for 20 min. CCM (1.5 mL) was then added to each well. Cultures were incubated in a humidified incubator at 37° C., and CCM was changed daily. Intestinal organoid treatment with LPS and metabolites
(§2) We had 2 series of metabolite-treated organoid experiments, i.e., 1) organoid from conventional C57BL6 mice and 2) Ocln KO and littermate WT control as a gift from Prof. Jerrold Turner (Harvard University). […] Seeding is designated as day 0. On day 3 of culture, the existing media in the wells were completely removed before adding treatments. LPS (1 μg/mL) with or without metabolites, i.e., IPA (0.1 mM) (Li et al., 2021), IAM (200 μM) (Vyhlidalova et al., 2020), MNA (12 ng/ml) (Liu et al., 2015), CARN (20 mM) (Boldyrev et al., 2013) or ASA (1 μM) (Erez et al., 2011) were each added in CCM at known physiological concentrations, incubated for 48 hours, thereafter, organoid was harvested for RNA extraction, and paraformaldehyde fixation for immunostaining.
Permeability assays followed earlier work (Pearce et al., 2018). Briefly, all media were removed and then organoid were incubated with CCM containing 4 kDa FITC-dextran (Sigma-Aldrich, St. Louis, MO, Cat. #46944) at a final concentration of 1.25 µM for 30 minutes at 37° C. and at 5% CO2. […] A fluorescent microscope (Nikon Eclipse TI, NY) at a 10× magnification was used to observe and capture the fluorescence within the lumen of the organoids. Using the same area as the lumen, three different background samples are measured randomly around the lumen. The three background samples measured are averaged and then subtracted from the measured fluorescence of the lumen. […] The quantification of the fluorescence was conducted using the ImageJ 1.53 (NIH, Bethesda, MD).

[3] = tested on: Tff3 and Lyz1 (goblet and Paneth cells); experiment: Organoids: goblet and Paneth cell transcripts (Tff3, Lyz1) and cell numbers; assay type: cell-based, mouse; conditions: enteroids
Protocol: as §2
(§3) Total RNA was extracted from the intestinal organoids using a commercially available kit (RNeasy Microkit; Qiagen, MD, Cat. #74004) following manufacturer's instructions. mRNA samples were converted to cDNA using Bio-Rad's iScript Reverse Transcription Supermix for RT-qPCR (Bio-Rad Laboratories, Hercules, CA, Cat. #1708840). cDNA was then used for RT-qPCR (Mx3000P. Stratagene, La Jolla, CA) to analyze several genes using Maxima SYBR Green qPCR Master Mix (Thermo Fisher Scientific, Waltham, MA) and primers (Integrated DNA Technologies, Coralville, IA). Thermal profile for three-step cycling was 10 min at 95° C. for initial denaturation; then 40 cycles of 15 sec at 95° C. for denaturation, 30 sec at 65° C. for annealing, and 30 sec at 75° C. for extension. Primers used are as follows: β-actin (Actb), forward 5′-[…]-3′ (SEQ ID NO: 5), reverse 5′-[…]-3′ (SEQ ID NO: 6); ZO-1 (Tjp1), forward 5′-[…]-3′ (SEQ ID NO: 7), reverse 5′-[…]-3′ (SEQ ID NO: 8), Ocln, forward 5′-[…]-3′ (SEQ ID NO: 9), reverse 5′-[…]-3′ (SEQ ID NO: 10); Lyz1, forward 5′-ATGGCTACCGTGGTGTCAAG-3′ (SEQ ID NO: 11), reverse 5′-CGGTCTCCACGGTTGTAGTT-3′ (SEQ ID NO: 12); Tff3, forward 5′-TAATGCTGTTGGTGGTCCTG-3′ (SEQ ID NO: 13), reverse 5′-CAGCCACGGTTGTTACACTG-3′ (SEQ ID NO: 14). All samples were normalized to β actin expression. Gene expression levels are depicted as fold change relative to the control group.
(§4) Immunocytochemistry followed earlier work (Pearce et al., 2018). Briefly, organoids were extracted from Matrigel by using cell recovery solution (Corning, Cat. No. 354253), processed then fixed in 4% paraformaldehyde for 15 min and dehydrated with 70% ethanol and kept in 4° C. until embedded in paraffin. On the day of embedding, organoids were gently spun down to a pellet (250 g for 5 min), then the supernatant was removed, the pellet resuspended in agarose and embedded in paraffin. […]

[4] = tested on: ZO-1 (Tjp1) and Ocln; experiment: Intestinal organoids treated with LPS and metabolites: tight junction (TJ) expression, RT-qPCR and immunostaining; assay type: cell-based, mouse
Protocol: as §1, §2, §3, §4

[5] = tested on: human-derived Caco-2 cells; experiment: In vitro transwell screening in Caco-2 cells, barrier disrupted by Clostridium difficile toxin (TEER and FITC-dextran permeability); assay type: cell-based; conditions: applied in the basolateral compartment, TOX
[6] = tested on: leaky gut mouse model (DSS colitis); experiment: DSS (3%) leaky gut colitis mouse model, metabolites i.p.; assay type: in vivo; conditions: 3% DSS; i.p. every other day; listed as ASA
From the text: A moderate amount of DSS (3%) creates a leaky gut model.
FIG. 23A, Analysis of plasma ovalbumin levels after oral ovalbumin gavage in mice treated with exogenous MNA or PBS. […] Analysis of fecal lipocalin levels in mice treated with PBS or MNA with or without DSS. […] Representative histology sections of mice treated with PBS or MNA with or without DSS. FIG. 23D, quantification of mouse histology sections scored for colitis index.
FIG. 24A, Analysis of zonula occludens (Tjp1) and occluding (Ocln) mRNA levels after treatment with PBS or MNA with or without DSS. FIG. 24B, Western blot analysis and quantification of Ocln protein levels after treatment with PBS or MNA with or without DSS. FIG. 24C, Quantified levels of occluding in the ileum (top) and colon (bottom) using immunofluorescence antibody staining.
Administration of DSS induces experimental colitis and disrupts gut barrier in vivo in animal models.
Exogenous MNA administration was assessed by plasma ovalbumin levels after oral ovalbumin gavage—an accepted method to determine permeability of the gut paracellular pathway. […] (FIG. 23B) Histology sections of mice treated with or without DSS and PBS or MNA were also obtained. […] Sections from several mice were also examined by a blinded observer and scored for colitis index.
(FIG. 24B) Using immunofluoresce antibody staining, quantified levels of occludin in the ileum and colon were also analyzed.

[7] = tested on: C57BL/6 mice with DSS-induced mild colitis; experiment: DSS induced mild colitis treatment with LGG metabolites (2.5% DSS); assay type: in vivo, mouse; conditions: metabolite i.p. twice
Protocol: FIG. 13A-13M. IPA requires Ocln to alleviate LPS-induced leaky epithelium. FIG. 13A, experimental design. Organoids were derived from tamoxifen-inducible, intestine-specific Ocln-knockout (KO) mice generated by crossing a floxed Ocln^fl/fl with Villin-CreERT2 mice. FIG. 13B, Representative images and FIG. 13C, quantitative analysis of permeability assay. LPS was added to CCM media (basolateral side) with and without IPA […] and IAM (200 μM) (n=3 mice). *** P<0.001, compared with WT control, †P<0.05 compared with KO-control. FIG. 13D, Representative images of immunofluorescent staining of Ocln in WT control and Ocln KO conventional mice, L=lumen. MNA improves but ASA exacerbates dextran sodium sulfate (DSS)-induced leaky gut. FIG. 13E, experimental design, evaluation in vivo of metabolites (Met). Methylnicotinamide (MNA. […]) and L-argininosuccinate (ASA. 3.6 mg/kg) were administered (i.p.) twice 1-day before and 3 days after DSS treatment p.o. 4 kDa fluorescein isothiocyanate (FITC)-dextran was gavaged 4 h before sacrifice. FIG. 13F, body weight of DSS-treated mice with and without metabolites, FIG. 13G, representative images of Ocln-stained colon sections (green; left panel) and ECad (red; middle). Merged images (yellow; right panel) depict Ocln location in TJ of MNA-treated but not in DSS-only and ASA-treated colon (arrows). Quantitative fluorescent intensity of Ocln (FIG. 13H) and ECad (FIG. 13I) in the TJ, relative to DSS only controls. FIG. 13J, DSS scoring. FIG. 13K, representative H&E images of DSS, DSS+ MNA and DSS+ASA colon sections. FIG. 13L, In vivo permeability as determined by fluorescent intensity of FITC in serum. FIG. 13M, Serum level of interleukin-6.
DSS induced mild colitis treatment with LGG metabolites. To assess in vivo impact of metabolites on gut barrier function, conventional C57BL/6 mice (8 weeks of age) were administered with 2.5% dextran sodium sulfate (DSS) in drinking water to induce mild colitis. Animals were intraperitoneal injected with either PBS vehicle, 30 mg/kg methylnicotinamide chloride, or 3.6 mg/kg argininosuccinic acid dissolved in sterile PBS at Day-1 and Day 4 of the experiment. Body weight was recorded daily. At Day 7, 4 hours before sacrifice and collection of blood, animals were gavaged with 600 mg/kg with 4 kDa FITC-dextran. Blood was collected in 5% EDTA and subsequently centrifuged at 3000 g for 5 minutes for plasma collection. FITC readings were collected by diluting 25 μl of plasma in 75 μl of PBS and analyzed using a Glomax (Promega, GMMTE9032) with Ex490/Em510-570 filter cube module. Serum concentration of interleukin-6 (Cat. No. Biolegend 431304) was also determined. Ileum and colon sections were collected, fixed in 4% paraformaldehyde, processed for embedding in paraffin wax. Pathohistology of intestine was observed by routine H&E staining.

[8] = tested on: ileal transcriptome; experiment: Germ-free mice monocolonized with LGG, trp+ or trp− diet: bulk RNA-sequencing of ileum; assay type: in vivo, mouse
Protocol: Gnotobiotic study. After 5 days of acclimatization under GF conditions, two cages of GF mice (n=10) were fed with a trp-free diet and another 2 cages with a trp-sufficient diet. Purified diets were sterilized by double-irradiation (Research Diets, New Brunswick, NJ) then stored in −80° C. Two weeks afterward, five mice from the trp-deficient and five from trp-sufficient were gavaged with LGG and the remaining mice with sterile PBS. Body weight and food intake were recorded weekly. Fecal pellets were collected aseptically one week before, then one and three weeks post inoculation, then stored (−80° C.) for later analysis. Feces were also collected twice a week then analyzed immediately to monitor gnotobiotic status. All mice were sacrificed three weeks post inoculation, then serum, liver, ileum and colon collected.
For LGG colonization, one cage of GF trp− mice and one cage of GF trp+ were orally gavaged with 200 μl of LGG (10^8 CFU/ml) in sterile PBS (LGG trp− and LGG trp+, respectively) while control GF received 200 μl sterile PBS (PBS trp− and PBS trp+).
Total RNA was isolated from mouse ileum then purified with RNeasy Plus universal kit (Qiagen, Hilden, Germany) following manufacturer's instructions. […] For global assessment of mouse RNA levels, total RNA was subjected to two rounds of poly(A) selection using oligo (dT) 25 magnetic beads (New England Biolabs [NEB], Ipswich, MA). Illumina-compatible RNA-seq libraries were constructed using the NEBNext Ultra II RNA library prep with sample purification beads (Cat. No. E7775) and NEB Next Multiplex Oligos for Illumina (dual index primers set 1; Cat. No. E7600) according to the manufacturer's instructions. Poly(A) selection and library quality were assessed using TapeStation 2200 (Agilent Technologies, Santa Clara, CA), and libraries were quantified using Qubit 4.0 fluorometer (Thermo Fisher, Waltham, MA). The prepared libraries were sequenced on an Illumina NextSeq 500 instrument (Illumina, San Diego, CA). CLC Genomics Workbench version 20.0.4 (Qiagen, Venlo, Netherlands) was used for RNA-seq analysis. […]

`N=C(N)NCCC[C@H](N)C(=O)O` [Arginine] was tested, and the “NO production (fluorescence intensity)” value [1] was “NO production increases”.

In the case of `NCCC(=O)N[C@@H](Cc1cnc[nH]1)C(=O)O` [Carnosine, carnosine], the “disruption of the gut barrier, fluorescence microscopy (FIG. 11M)” value [2] was “prevented disruption of the gut barrier”, the “goblet and Paneth cell transcripts and cell numbers” value [3] was “reduced goblet and Paneth cell transcripts as well as cell numbers” and the “gene expression of Ocln” value ([4]; ex vivo, in the presence of the barrier disruptor) was “increased gene expression of Ocln”. For the same compound, the “TJ expression at the protein and mRNA levels” value ([4]; in the presence of LPS (1 μg/mL), 48 hr) was “increased TJ expression”.

`O=Cc1c[nH]c2ccccc12` [Indole-3-carboxaldehyde] was tested, and the “TEER, indole metabolites” value [5] was “more effective when applied in this compartment than in the luminal”.

In the case of `NC(=NCCC[C@H](N)C(=O)O)N[C@@H](CC(=O)O)C(=O)O` [L-arginino-succinate, L-argininosuccinic acid], the “disruption of the gut barrier, fluorescence microscopy (FIG. 11M)” value [2] was “disrupted the gut”, the “body weight loss and recovery in DSS leaky gut model” value [6] was “exacerbated the effects of DSS, and significantly delayed recovery; also recorded: exacerbates weight loss” and the “DSS-induced leaky gut (overall)” value [7] was “exacerbates”. The “E-cad abundance and localization in colonic epithelial cells” value [7] was “appeared dispersed”, the “Ocln expression in colonic epithelium” value [7] was “reduction in Ocln expression” and the body weight ([7]; vs DSS alone) was “greater tendency to lose weight”. The TJ expression ([4]; metabolite alone, 48 hr) was “significantly reduced TJ expression”.

With `N[C@@H](Cc1c[nH]c2ccccc12)C(=O)O` [Tryptophan] the “number of ileal transcripts affected by dietary trp” value ([8]; GF mice) was 3917, the “number of ileal transcripts affected by dietary trp” value ([8]; LGG mono-associated mice) was 5315 and the “number of transcripts affected solely by dietary trp with or without LGG” value ([8]; mouse, in vivo) was 1496.

In the case of `NC(=O)NCCC[C@H](N)C(=O)O` [citrulline], the “NO production (fluorescence intensity)” value [1] was “NO production increases”.
